# Target: NLRP3 (Homo sapiens, UniProt Q96P20)
# Assay: THP-1 cells pyroptosis assay
# Format: cell-based
# Design: Seed THP-1 cells (25,000 cells/well) containing 1.0 μg/ml LPS; host or cells: THP-1
# Conditions: LPS 1.0 μg/ml, nigericin 5 μM, resazurin readout, 10 μM top dose (Example 2: top dose of 30 μM)
# Experimental: THP-1 cells (ATCC #TIB-202) were grown in RPMI containing L-glutamine (Gibco #11835) supplemented with imM sodium pyruvate (Sigma #S8636) and penicillin (100 units/ml)/streptomycin (0.1 mg/ml) (Sigma #P4333) in 10% Fetal Bovine Serum (FBS) (Sigma #F0804). The cells were routinely passaged and grown to confluency (˜10^6 cells/ml). On the day of the experiment, THP-1 cells were harvested and resuspended into RPMI medium (without FBS). The cells were then counted and viability (>90%) checked by Trypan blue (Sigma #T8154). Appropriate dilutions were made to give a concentration of 625,000 cells/ml. To this diluted cell solution was added LPS (Sigma #L4524) to give a 1 μg/ml Final Assay Concentration (FAC). 40 μl of the final preparation was aliquoted into each well of a 96-well plate. The plate thus prepared was used for compound screening.
# The following method step-by-step assay was followed for compound screening. • 1. Seed THP-1 cells (25,000 cells/well) containing 1.0 μg/ml LPS in 40 μl of RPMI medium (without FBS) in 96-well, black walled, clear bottom cell culture plates coated with poly-D-lysine (VWR #734-0317) • 2. Add 5 μl compound (8 points four-fold dilution or 8 points half-log dilution, with 10 μM top dose, unless stated otherwise) or vehicle (DMSO 0.1% FAC) to the appropriate wells • 3. Incubate for 3 hrs at 37° C. and 5% CO2 • 4. Add 5 μl nigericin (Sigma #N7143) (FAC 5 μM) to all wells • 5. Incubate for 1 hr at 37° C. and 5% CO2 • 6. At the end of the incubation period, spin plates at 300×g for 3 mins and remove supernatant • 7. Then add 50 μl of resazurin (Sigma #R^7017) (FAC 100 μM resazurin in RPMI medium without FBS) and incubate plates for a further 1-2 hrs at 37° C. and 5% CO2 • 8. Plates were read in an Envision reader at Ex 560 nm and Em 590 nm • 9. IC50 data is fitted to a non-linear regression equation (log inhibitor vs response-variable slope 4-parameters)
# NLRP3, sequence (Q96P20 whole entry): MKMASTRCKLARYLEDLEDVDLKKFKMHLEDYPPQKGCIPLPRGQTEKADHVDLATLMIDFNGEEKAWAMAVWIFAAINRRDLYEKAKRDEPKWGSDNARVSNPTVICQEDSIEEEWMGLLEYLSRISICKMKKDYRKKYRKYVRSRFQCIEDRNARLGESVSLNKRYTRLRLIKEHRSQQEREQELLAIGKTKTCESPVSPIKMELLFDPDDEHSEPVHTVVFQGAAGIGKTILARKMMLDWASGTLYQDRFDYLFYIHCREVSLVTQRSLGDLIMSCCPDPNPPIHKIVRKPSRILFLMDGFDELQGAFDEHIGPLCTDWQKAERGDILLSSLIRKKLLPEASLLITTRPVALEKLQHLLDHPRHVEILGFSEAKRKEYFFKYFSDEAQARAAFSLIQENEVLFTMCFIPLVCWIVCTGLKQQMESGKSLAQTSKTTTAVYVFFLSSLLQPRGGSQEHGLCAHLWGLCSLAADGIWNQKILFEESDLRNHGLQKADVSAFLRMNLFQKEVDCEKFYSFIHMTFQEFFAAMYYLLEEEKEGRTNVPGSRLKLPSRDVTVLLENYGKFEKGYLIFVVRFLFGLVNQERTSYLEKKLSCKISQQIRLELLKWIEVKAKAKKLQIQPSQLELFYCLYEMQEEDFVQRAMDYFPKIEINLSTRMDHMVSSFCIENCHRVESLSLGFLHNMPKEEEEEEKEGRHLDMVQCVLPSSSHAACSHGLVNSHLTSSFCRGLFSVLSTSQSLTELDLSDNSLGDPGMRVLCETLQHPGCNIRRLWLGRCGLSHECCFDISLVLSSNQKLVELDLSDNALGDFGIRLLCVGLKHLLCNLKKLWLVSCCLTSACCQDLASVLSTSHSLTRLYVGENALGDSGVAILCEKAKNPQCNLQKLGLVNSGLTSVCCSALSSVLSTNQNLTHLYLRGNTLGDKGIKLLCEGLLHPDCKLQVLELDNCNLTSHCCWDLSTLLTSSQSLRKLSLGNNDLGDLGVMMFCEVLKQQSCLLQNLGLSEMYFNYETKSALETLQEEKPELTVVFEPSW
row,Compound,IC50
1,"CS(=O)(=O)c1nnc(Nc2c(-c3ccnc(OC4CCNCC4)c3)ccc3c2CCC3)[nH]1 [Example 357, 5-(methylsulfonyl)-N-(5-(2-(piperidin-4-yloxy)pyridin-4-yl)-2,3-dihydro-1H-inden-4-yl)-4H-1,2,4-triazol-3-amine]",≤ 10 µM
2,"O=S(=O)(c1nnc(Nc2c3c(cc4c2CCC4)CCC3)[nH]1)N1CC2(CCNC2)C1 [Example 265, 5-((2,6-diazaspiro[3.4]octan-2-yl)sulfonyl)-N-(1,2,3,5,6,7-hexahydro-s-indacen-4-yl)-4H-1,2,4-triazol-3-amine]",≤ 5 µM
3,"CN1CCN(S(=O)(=O)c2nnc(Nc3c4c(cc5c3CCC5)CCC4)[nH]2)CC1=O [Example 113, 4-((5-((1,2,3,5,6,7-hexahydro-s-indacen-4-yl)amino)-4H-1,2,4-triazol-3-yl)sulfonyl)-1-methylpiperazin-2-one]",≤ 5 µM
4,"CN1CCC(CN(C)S(=O)(=O)c2nnc(Nc3c4c(cc5c3CCC5)CCC4)[nH]2)C1 (stereo not shown) [Example 92, 5-((1,2,3,5,6,7-hexahydro-s-indacen-4-yl)amino)-N-methyl-N-((1-methylpyrrolidin-3-yl)methyl)-4H-1,2,4-triazole-3-sulfonamide]",≤ 10 µM
5,"CS(=O)(=O)c1nnc(Nc2c(-c3ccnc(OCc4ccccc4)c3)ccc3c2CCC3)[nH]1 [Example 234, N-(5-(2-(benzyloxy)pyridin-4-yl)-2,3-dihydro-1H-inden-4-yl)-5-(methylsulfonyl)-4H-1,2,4-triazol-3-amine]",≤ 5 µM
6,"CN1CCC(CN(C)CCCS(=O)(=O)c2nnc(Nc3c4c(cc5c3CCC5)CCC4)[nH]2)CC1 [Example 53, N-(1,2,3,5,6,7-hexahydro-s-indacen-4-yl)-5-((3-(methyl((1-methylpiperidin-4-yl)methyl)amino)propyl)sulfonyl)-4H-1,2,4-triazol-3-amine]",≤ 5 µM
7,"NC(=O)c1ccc(S(=O)(=O)c2nnc(Nc3c4c(cc5c3CCC5)CCC4)[nH]2)cc1 [Example 327, 4-((5-((1,2,3,5,6,7-hexahydro-s-indacen-4-yl)amino)-4H-1,2,4-triazol-3-yl)sulfonyl)benzamide]",≤ 5 µM
8,"O=S(=O)(c1nnc(Nc2c3c(cc4c2CCC4)CCC3)[nH]1)N1CCC(O)C1 (stereo not shown) [Example 123, 1-((5-((1,2,3,5,6,7-hexahydro-s-indacen-4-yl)amino)-4H-1,2,4-triazol-3-yl)sulfonyl)pyrrolidin-3-ol]",≤ 5 µM
9,"O=S(=O)(c1ccncc1)c1nnc(Nc2c3c(cc4c2CCC4)CCC3)[nH]1 [Example 171, N-(1,2,3,5,6,7-hexahydro-s-indacen-4-yl)-5-(pyridin-4-ylsulfonyl)-4H-1,2,4-triazol-3-amine]",≤ 5 µM
10,"COc1cc(-c2ccc3c(c2Nc2nnc(S(=O)(=O)c4ccccc4)[nH]2)CCO3)ccn1 [Example 190, N-(5-(2-methoxypyridin-4-yl)-2,3-dihydrobenzofuran-4-yl)-5-(phenylsulfonyl)-4H-1,2,4-triazol-3-amine]",≤ 5 µM
11,"CNC(=O)C1CCN(S(=O)(=O)c2nnc(Nc3c4c(cc5c3CCC5)CCC4)[nH]2)C1 (stereo not shown) [Example 140, 1-((5-((1,2,3,5,6,7-hexahydro-s-indacen-4-yl)amino)-4H-1,2,4-triazol-3-yl)sulfonyl)-N-methylpyrrolidine-3-carboxamide]",≤ 5 µM
12,"O=S(=O)(c1ccccn1)c1nnc(Nc2c3c(cc4c2CCC4)CCC3)[nH]1 [Example 170, N-(1,2,3,5,6,7-hexahydro-s-indacen-4-yl)-5-(pyridin-2-ylsulfonyl)-4H-1,2,4-triazol-5-amine]",≤ 1 µM
13,"O=S1(=O)CCN(S(=O)(=O)c2nnc(Nc3c4c(cc5c3CCC5)CCC4)[nH]2)CC1 [Example 298, 4-((5-((1,2,3,5,6,7-hexahydro-s-indacen-4-yl)amino)-4H-1,2,4-triazol-3-yl)sulfonyl)thiomorpholine 1,1-dioxide]",≤ 10 µM
14,"O=S(=O)(NCc1ccccn1)c1nnc(Nc2c3c(cc4c2CCC4)CCC3)[nH]1 [Example 98, 5-((1,2,3,5,6,7-hexahydro-s-indacen-4-yl)amino)-N-(pyridin-2-ylmethyl)-4H-1,2,4-triazole-3-sulfonamide]",≤ 5 µM
15,"CN(C)c1cccc(CS(=O)(=O)c2nnc(Nc3c4c(cc5c3CCC5)CCC4)[nH]2)c1 [Example 74, 3-((3-(dimethylamino)benzyl)sulfonyl)-N-(1,2,3,5,6,7-hexahydro-s-indacen-4-yl)-1H-1,2,4-triazol-5-amine]",≤ 5 µM

# The next lines start with the values.
row,IC50,Compound
1,≤ 5 µM,"CN1CC(CNS(=O)(=O)c2nnc(Nc3c4c(cc5c3CCC5)CCC4)[nH]2)C1 [Example 88, 5-((1,2,3,5,6,7-hexahydro-s-indacen-4-yl)amino)-N-((1-methazetidin-3-yl)methyl)-4H-1,2,4-triazole-3-sulfonamide]"
2,≤ 5 µM,"O=S(=O)(c1nnc(Nc2c3c(cc4c2CCC4)CCC3)[nH]1)N1CCCC2(CCOC2)C1 (stereo not shown) [Example 313, 5-(2-oxa-7-azaspiro[4.5]decan-7-ylsulfonyl)-N-(1,2,3,5,6,7-hexahydro-s-indacen-4-yl)-4H-1,2,4-triazol-3-amine]"
3,≤ 5 µM,"CN(C)C1CCN(S(=O)(=O)c2nnc(Nc3c4c(c(C#N)c5c3CCC5)CCC4)[nH]2)CC1 [Example 223, 8-((5-((4-(dimethylamino)piperidin-1-yl)sulfonyl)-4H-1,2,4-triazol-3-yl)amino)-1,2,3,5,6,7-hexahydro-s-indacene-4-carbonitrile]"
4,≤ 5 µM,"(E)-1-(8-((5-((4-(dimethylamino)piperidin-1-yl)sulfonyl)-4H-1,2,4-triazol-3-yl)amino)-1,2,3,5,6,7-hexahydro-s-indacen-4-yl)ethan-1-one oxime and (Z)-1-(8-((5-((4-(dimethylamino)piperidin-1-yl)sulfonyl)-4H-1,2,4-triazol-3-yl)amino)-1,2,3,5,6,7-hexahydro-s-indacen-4-yl)ethan-1-one oxime [Example 309]"
5,≤ 0.5 µM,"COc1cc(-c2ccc3c(c2Nc2nnc(S(=O)(=O)c4ccc(C(C)(C)O)cc4)[nH]2)CCC3)ccn1 [Example 324, 2-(4-((5-((5-(2-methoxypyridin-4-yl)-2,3-dihydro-1H-inden-4-yl)amino)-4H-1,2,4-triazol-3-yl)sulfonyl)phenyl)propan-2-ol]"
6,≤ 5 µM,"CN1CCN(S(=O)(=O)c2nnc(Nc3c4c(cc5c3CCC5)CCC4)[nH]2)CC1 [Example 100, N-(1,2,3,5,6,7-hexahydro-s-indacen-4-yl)-5-((4-methylpiperazin-1-yl)sulfonyl)-4H-1,2,4-triazol-3-amine]"
7,≤ 10 µM,"CC(C)c1cc(F)cc(C(C)C)c1Cc1nnc(S(=O)(=O)Cc2ccc(F)cc2)[nH]1 [Example 28, 3-(4-fluoro-2,6-diisopropylbenzyl)-5-((4-fluorobenzyl)sulfonyl)-4H-1,2,4-triazole]"
8,≤ 10 µM,"O=S(=O)(Cc1cccnc1)c1nnc(Nc2c3c(cc4c2CCC4)CCC3)[nH]1 [Example 73, N-(1,2,3,5,6,7-hexahydro-s-indacen-4-yl)-3-((pyridin-3-ylmethyl)sulfonyl)-1H-1,2,4-triazol-5-amine]"
9,≤ 5 µM,"N#Cc1c2c(c(Nc3nnc(S(=O)(=O)c4ccccc4)[nH]3)c3c1CCC3)CCC2 [Example 323, 8-((5-(phenylsulfonyl)-4H-1,2,4-triazol-3-yl)amino)-1,2,3,5,6,7-hexahydro-5-indacene-4-carbonitrile]"
10,≤ 5 µM,"CS(=O)(=O)c1nnc(Nc2c(-c3ccnc(OC4CCOCC4)c3)ccc3c2CCC3)[nH]1 [Example 342, 5-(methylsulfonyl)-N-(5-(2-((tetrahydro-2H-pyran-4-yl)oxy)pyridin-4-yl)-2,3-dihydro-1H-inden-4-yl)-4H-1,2,4-triazol-3-amine]"
11,≤ 10 µM,"CC(C)n1ncc(-c2ccncc2)c1Nc1nnc(S(=O)(=O)N2CCC(N(C)C)CC2)[nH]1 [Example 198, 1-((5-((1-isopropyl-4-(pyridin-4-yl)-1H-pyrazol-5-yl)amino)-4H-1,2,4-triazol-3-yl)sulfonyl)-N,N-dimethylpiperidin-4-amine]"
12,≤ 5 µM,"CN1CCC(Oc2cc(-c3ccc4c(c3Nc3nnc(S(=O)(=O)N5CCC(N(C)C)CC5)[nH]3)CCC4)ccn2)CC1 [Example 321, N,N-dimethyl-1-((5-((5-(2-((1-methylpiperidin-4-yl)oxy)pyridin-4-yl)-2,3-dihydro-1H-inden-4-yl)amino)-4H-1,2,4-triazol-3-yl)sulfonyl)piperidin-4-amine]"
13,≤ 10 µM,"O=S(=O)(c1nnc(Nc2c3c(cc4c2CCC4)CCC3)[nH]1)N1CCn2cncc2C1 [Example 281, 5-((5,6-dihydroimidazo[1,5-a]pyrazin-7 (8H)-yl)sulfonyl)-N-(1,2,3,5,6,7-hexahydro-s-indacen-4-yl)-4H-1,2,4-triazol-3-amine]"
